“And” between values parts separate entries of the source, which are not always exact repeats. Equal entries are not always repeated. Bridge positions count the residues as written; N and C are the ends. Square brackets hold non-standard residues; d marks the D form. Triazole bridges read from a SMILES are 1,4-linked. Peptide text beside a SMILES is read from it. Orn(N3) = [N-]=[N+]=NCCC[C@H](N)C(=O)O; Cit = NC(=O)NCCC[C@H](N)C(=O)O; Pra = C#CC[C@H](N)C(=O)O
Columns and labels:
[1] = tested on: oxaliplatin-induced peripheral neuropathy; parameters: species or system Sprague Dawley rats; settings: in vivo
[2] = tested on: 88 receptors, transporters, enzymes and kinases
human α9α10 nAChR = human α9α10 nAChR (Homo sapiens, UniProt Q9GZZ6+Q9UGM1); assay: cell-based; format: cell-based
rat α9α10 nAChR = rat α9α10 nAChR (Rattus norvegicus, UniProt P43144+Q9JLB5); assay: cell-based; format: cell-based; settings: for IC50: α9α10 nAChR IC50 (nM) Rat
spared nerve injury = tested on: spared nerve injury; parameters: species or system rats; settings: rat, in vivo, 0.5 mg/kg
α7 nAChR = α7 nAChR (Homo sapiens, UniProt P36544); settings: read-out: Partial inhibition of the α7 nAChR
α9α10 nAChR = settings: cited from earlier work
in vivo = settings: male, Sprague Dawley, rat, sc, 1 mg/kg
[3] = 24 h
[4] = rat, in vivo, 1 mg/kg, 1 h

Chain of human α9α10 nAChR (Q9UGM1 26-479 limits assumed): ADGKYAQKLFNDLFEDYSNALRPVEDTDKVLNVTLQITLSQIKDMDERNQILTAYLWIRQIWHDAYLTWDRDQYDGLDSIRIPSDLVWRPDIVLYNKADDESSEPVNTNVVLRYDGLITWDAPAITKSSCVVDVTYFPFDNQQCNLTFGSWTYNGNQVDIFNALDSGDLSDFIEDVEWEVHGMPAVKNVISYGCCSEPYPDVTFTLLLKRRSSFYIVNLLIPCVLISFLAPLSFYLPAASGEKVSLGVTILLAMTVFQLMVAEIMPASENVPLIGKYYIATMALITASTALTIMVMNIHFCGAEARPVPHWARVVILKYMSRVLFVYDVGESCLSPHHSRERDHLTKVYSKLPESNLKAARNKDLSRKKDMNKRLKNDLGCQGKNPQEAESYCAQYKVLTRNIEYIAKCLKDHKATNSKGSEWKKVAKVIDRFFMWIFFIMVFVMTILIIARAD
Chain of human α9α10 nAChR (Q9GZZ6 25-450 limits assumed): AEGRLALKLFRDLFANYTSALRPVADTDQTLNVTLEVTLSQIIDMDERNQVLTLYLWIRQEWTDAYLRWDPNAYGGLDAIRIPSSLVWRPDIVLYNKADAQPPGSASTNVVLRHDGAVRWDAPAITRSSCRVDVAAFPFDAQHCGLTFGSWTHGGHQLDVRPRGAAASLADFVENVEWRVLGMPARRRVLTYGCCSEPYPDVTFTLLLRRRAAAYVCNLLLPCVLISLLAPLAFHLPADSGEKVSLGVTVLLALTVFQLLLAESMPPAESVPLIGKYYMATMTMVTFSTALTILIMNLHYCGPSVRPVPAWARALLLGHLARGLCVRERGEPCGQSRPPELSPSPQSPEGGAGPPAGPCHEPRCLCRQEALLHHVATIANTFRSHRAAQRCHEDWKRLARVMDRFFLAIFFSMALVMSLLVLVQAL
Chain of rat α9α10 nAChR (P43144 26-479 limits assumed): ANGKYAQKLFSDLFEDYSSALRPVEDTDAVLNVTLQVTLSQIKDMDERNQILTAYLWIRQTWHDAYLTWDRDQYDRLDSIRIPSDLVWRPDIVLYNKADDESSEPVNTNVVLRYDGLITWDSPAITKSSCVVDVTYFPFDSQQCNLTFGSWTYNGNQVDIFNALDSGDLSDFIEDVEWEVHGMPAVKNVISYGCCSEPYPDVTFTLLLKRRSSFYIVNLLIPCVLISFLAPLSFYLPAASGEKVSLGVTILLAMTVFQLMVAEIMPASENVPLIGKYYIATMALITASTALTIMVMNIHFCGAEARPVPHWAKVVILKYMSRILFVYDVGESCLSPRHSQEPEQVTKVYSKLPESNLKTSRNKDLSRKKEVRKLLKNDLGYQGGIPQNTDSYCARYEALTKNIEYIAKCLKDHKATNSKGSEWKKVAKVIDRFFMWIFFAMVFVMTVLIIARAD
Chain of rat α9α10 nAChR (Q9JLB5 25-447 limits assumed): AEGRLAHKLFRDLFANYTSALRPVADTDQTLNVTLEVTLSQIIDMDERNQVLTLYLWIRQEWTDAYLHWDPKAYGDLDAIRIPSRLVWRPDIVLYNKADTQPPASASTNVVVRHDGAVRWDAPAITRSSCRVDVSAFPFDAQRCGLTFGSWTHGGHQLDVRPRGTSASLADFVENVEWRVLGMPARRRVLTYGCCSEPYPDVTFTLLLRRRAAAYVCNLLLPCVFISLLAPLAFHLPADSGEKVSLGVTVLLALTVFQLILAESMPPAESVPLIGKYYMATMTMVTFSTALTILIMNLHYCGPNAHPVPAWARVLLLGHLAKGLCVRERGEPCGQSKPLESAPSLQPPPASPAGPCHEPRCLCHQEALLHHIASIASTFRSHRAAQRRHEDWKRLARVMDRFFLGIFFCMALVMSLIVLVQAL
Chain of α7 nAChR (P36544 23-502 limits assumed): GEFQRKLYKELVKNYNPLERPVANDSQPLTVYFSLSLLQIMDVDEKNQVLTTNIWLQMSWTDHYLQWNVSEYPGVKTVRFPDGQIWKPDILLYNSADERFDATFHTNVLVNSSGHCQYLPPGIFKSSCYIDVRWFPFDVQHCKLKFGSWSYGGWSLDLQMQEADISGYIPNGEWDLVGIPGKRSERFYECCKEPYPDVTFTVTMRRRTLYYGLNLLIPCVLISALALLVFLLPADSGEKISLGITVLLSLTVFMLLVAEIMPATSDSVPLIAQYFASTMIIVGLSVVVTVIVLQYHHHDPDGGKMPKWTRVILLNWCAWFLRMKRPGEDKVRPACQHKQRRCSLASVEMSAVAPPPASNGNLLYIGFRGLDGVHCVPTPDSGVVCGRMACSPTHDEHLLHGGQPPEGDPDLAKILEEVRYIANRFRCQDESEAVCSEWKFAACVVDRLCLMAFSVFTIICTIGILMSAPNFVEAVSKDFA

## C[C@@H](O)[C@@H]1NC(=O)[C@@H]2Cc3cn(nn3)CCC[C@@H](C(=O)N[C@@H](Cc3ccc(O)cc3)C(N)=O)NC(=O)[C@H](CCC(N)=O)NC(=O)[C@H](Cc3c[nH]c4ccccc34)NC(=O)[C@H](CCCNC(N)=O)NC(=O)[C@H](CSSC[C@H](NC(=O)CN)C(=O)N2)NC(=O)[C@H](CCCNC(=N)N)NC(=O)[C@@H]2CCCN2C(=O)[C@H](CC(=O)O)NC1=O [Ia′, L-tyrosinamide, glycyl-L-cysteinyl-L-alanyl-L-threonyl-L-α-aspartyl-L-prolyl-L-arginyl-L-cysteinyl-N5-(aminocarbonyl)-L-ornithyl-L-tryptophyl-L-glutaminyl-L-norvalyl-cyclic (2→8)-disulfide-cyclic 3^3,12^5-(1H-1,2,3-triazole-4,1-diyl)] (H-GC[Pra]TDPRC[Cit]WQ[Orn(N3)]Y-NH2; disulfide 2-8; triazole 3-12)
[1]; rat, 0.5 mg/kg
  Duration of significant reduction in mechanical hyperalgesia compared to vehicle: up to 24 h
[1]; rat, sc, 0.5 mg/kg
  Mechanical hyperalgesia versus vehicle (in words): statistically significant improvements in mechanical hyperalgesia
[2]
  Off-target effects in panel of 88 receptors, transporters, enzymes and kinases: no off-target effects
Human α9α10 nAChR
  IC50: 26 ± 4 nM
Rat α9α10 nAChR
  IC50: 12.6 nM and 7.7 nM
Spared nerve injury
  Duration of significant reduction in mechanical hyperalgesia compared to vehicle: up to 24 h
Spared nerve injury; sc
  Mechanical hyperalgesia versus vehicle (in words): statistically significant improvement in mechanical hyperalgesia
α7 nAChR
  inhibition at 10 µM: 52%

## N=C(N)NCCC[C@H](NC(=O)[C@@H]1CSSC[C@@H]2NC(=O)[C@@H](NC(=O)CN)CSSC[C@H](NC(=O)[C@H](CCCNC(=N)N)NC(=O)[C@@H]3CCCN3C(=O)[C@H](CC(=O)O)NC(=O)[C@H](CO)NC2=O)C(=O)N[C@@H](CCCNC(=N)N)C(=O)N[C@@H](Cc2ccc(O)cc2)C(=O)N[C@@H](CCCNC(=N)N)C(=O)N1)C(=O)O [RgIA]
α9α10 nAChR
  Lower affinity for the human than the rat α9α10 nAChR: approximately 300 fold

## C[C@@H](O)[C@@H]1NC(=O)[C@@H]2Cc3cn(nn3)CCC[C@@H](C(=O)N[C@@H](Cc3ccc(O)cc3)C(=O)O)NC(=O)[C@H](CCC(N)=O)NC(=O)[C@H](Cc3c[nH]c4ccccc34)NC(=O)[C@H](CCCNC(N)=O)NC(=O)[C@H](CSSC[C@H](NC(=O)CN)C(=O)N2)NC(=O)[C@H](CCCNC(=N)N)NC(=O)[C@@H]2CCCN2C(=O)[C@H](CC(=O)O)NC1=O [Ia, L-tyrosine, glycyl-L-cysteinyl-L-alanyl-L-threonyl-L-α-aspartyl-L-prolyl-L-arginyl-L-cysteinyl-N5-(aminocarbonyl)-L-ornithyl-L-tryptophyl-L-glutaminyl-L-norvalyl-cyclic (2→8) disulfide-cyclic 3^3,12^5-(1H-1,2,3-triazole-4,1-diyl)] (H-GC[Pra]TDPRC[Cit]WQ[Orn(N3)]Y-OH; disulfide 2-8; triazole 3-12)
[1]
  PD (Rat CIPN) Duration of PD effect: 4 to 24 h
  PD (Rat CIPN) Required dose to reach max efficacy: 0.5 mg/kg
[1]; rat, 0.5 mg/kg
  Duration of significant reduction in mechanical hyperalgesia compared to vehicle: up to 4 h
Human α9α10 nAChR
  IC50: 0.7 ± 0.03 nM
Rat α9α10 nAChR
  IC50: 14.3 ± 1.8 nM
In vivo
  AUC: 981 ng·h/mL
  AUC(0-t): 981 ng·h/mL
  Cmax: 648 ng/mL
  Tmax: 15 min
  half-life: 30 min
[3]
  Disulfide rearrangement / stability in plasma and serum (in words): single isolated peak on reverse phase HPLC in rat plasma at 0 h, 8 h and 24 h

## C[C@@H](O)[C@@H]1NC(=O)[C@@H]2CSSC[C@@H](C(=O)N[C@@H](Cc3ccc(O)cc3)C(N)=O)NC(=O)[C@H](CCC(N)=O)NC(=O)[C@H](Cc3ccc(O)c(I)c3)NC(=O)[C@H](CCCNC(N)=O)NC(=O)[C@H](CSSC[C@H](NC(=O)CN)C(=O)N2)NC(=O)[C@H](CCCNC(=N)N)NC(=O)[C@@H]2CCCN2C(=O)[C@H](CC(=O)O)NC1=O [CSP-4-NH2, reference compound]
Human α9α10 nAChR
  Activity on the human α9α10 nAChR (in words): active
  Block of ACh-evoked currents: > 99%
  IC50: 3.5 ± 1.5 nM
  Percent of 100 μM acetylcholine-induced current remaining in the presence of compound, Mean ± SEM: 0.4 ± 0.11%
Rat α9α10 nAChR
  Activity on the rat α9α10 nAChR (in words): active
  IC50: 0.4 ± 0.2 nM
[4]
  Recovered peptide from blood remaining in the native form: 40-50%

Reference: patent US11612661B2 (priority 2019, dated 2023)
